Experimental data reported in patent US9688638B2, “Opioid agonists and uses thereof” (priority 2013, dated 2017).
Several values for one entry are separate records, joined by “and”; a condition that tells them apart may be missing. Equal entries are not always repeated. Where two headings read alike, the source gives them in different places.

Assays:
[1] = test system: Swiss Albino or CD-1 male mice; assay: Acetic acid writhing (AAW) analgesic assay; type: in vivo; details: for inhibition in vivo at 10 mg/kg / inhibition in vivo at 3 mg/kg / inhibition in vivo at 30 mg/kg / inhibition in vivo at 0.3 mg/kg: Mus musculus, 20 min, read-out: AAW % Efficacy
Procedure: Approaches for evaluating analgesic activity of a compound of the present invention in vivo include a “writhing test.” Briefly, the compound to be tested is administered [by, for example, injection (e.g., subcutaneous injection)] to the mouse. Thereafter, a 0.5% acetic acid solution is administered (i.p.) to a mouse and the numbers of writhing responses are counted for twenty minutes. Antinociception is quantified as reduction in the number of writhes respective to vehicle.
An analgesic assay was used to determine whether a given compound can reduce and/or prevent visceral pain in mice. The assay utilizes Swiss Albino or CD-1 male mice (5-10 mice per group), each mouse being approximately 0.015-0.030 kg on the study day. Mice were treated according to standard protocols.
The animal was given an intraperitoneal (IP) injection of an irritant (acetic acid) that induces “writhing” which may include: contractions of the abdomen, twisting and turning of the trunk, arching of the back and the extension of the hindlimbs. Mice are given a single IP injection (0.1 mL/10 g bodyweight) of a 0.5% acetic acid solution. After the injection the animals were returned to their observation enclosure and their behavior was observed. Contractions were counted between 0 and 20 minutes after the injection. The animals were used once. In certain instances, the test articles were administered at multiple doses to determine a dose response curve.
Table 4 provides the results for certain compounds of the present invention that were administered subcutaneously. Table 5 provides the results for certain compounds of the present invention that were administered orally.

[2] = biological target: recombinant human kappa (KOR) opioid receptor (Homo sapiens (Human), UniProt P41145); assay: biochemical; type: binding
KOR = KOR (Homo sapiens (Human), UniProt P41145); assay: cAMP accumulation assay, forskolin-stimulated CHO-K1 cells stably expressing KOR; type: cell-based
Procedure: Inhibition of cAMP accumulation by select compounds was measured in forskolin-stimulated CHO-K1 cells stably expressing KOR. CHO-K1 cells stably expressing KOR were harvested using Invitrogen Cell Dissociation Buffer, and then centrifuged at 1200 rpm for five minutes. The supernatant was aspirated and cells were resuspended in assay buffer to a density of 4×10^5 cells/mL. 25 μL of cells were added into a white half-area 96 well plate. Fourteen point serial dilutions of test compounds were carried out in assay buffer (PBS with 0.5 mM IBMX). Ketazocine was used as a positive control for each assay. 12.5 μL of compound was added to the cells in duplicate for each test concentration. The cells were then stimulated with 12.5 μL forskolin at a final concentration 20 μM. Cells were incubated for 45 minutes in a 37° C., 5% CO2 water jacketed incubator. CisBio HTRF cAMP assay reagent was used for cAMP quantitation. Two hours after substrate addition, signal at 665/615 nm was measured using the Perkin Elmer Victor X4 HTRF reader. Data analysis was done using GraphPad Prism, sigmoidal dose-response (variable slope) curve fitting.

[3] = inhibition of cAMP accumulation, forskolin 20 μM, read-out: EC50 cAMP (nM)-KOR

Q: With `COCCOCCNCc1ccc2c(c1)[C@]1(C)CCN(CC3CC3)[C@H](C2=O)[C@@H]1C` [Compound 18, (2S,6R,11R)-3-(cyclopropylmethyl)-8-(((2-(2-methoxyethoxy)ethyl)amino)methyl)-6,11-dimethyl-3,4,5,6-tetrahydro-2,6-methanobenzo[d]azocin-1(2H)-one] as the compound, how does the inhibition in vivo at 10 mg/kg ([1]; sc, subcutaneous, 10 mg/kg) read?
A: The inhibition in vivo at 10 mg/kg was 31.9%.

Q: `COCCOCCOCCOCCOCCNc1nc2cc3c(cc2s1)C(=O)[C@@H]1[C@H](C)[C@@]3(C)CCN1CC1CC1` [Compound 13, (6S,10R,12R)-2-(2,5,8,11,14-pentaoxahexadecan-16-ylamino)-7-(cyclopropylmethyl)-10,12-dimethyl-7,8,9,10-tetrahydro-6,10-methanothiazolo[4′,5′:4,5]benzo[1,2-d]azocin-5(6H)-one] was tested. Which inhibition in vivo at 10 mg/kg ([1]; sc, subcutaneous, 10 mg/kg) did it give?
A: The inhibition in vivo at 10 mg/kg was 40.2%.

Q: For `COCCOCCOCCOCCOCCOc1cccc(Nc2ccc3c(c2)[C@]2(C)CCN(CC4CC4)[C@H](C3=O)[C@@H]2C)c1` [Compound 8, (2S,6R,11R)-8-((3-(2,5,8,11,14-pentaoxahexadecan-16-yloxy)phenyl)amino)-3-(cyclopropylmethyl)-6,11-dimethyl-3,4,5,6-tetrahydro-2,6-methanobenzo[d]azocin-1(2H)-one], which inhibition in vivo at 3 mg/kg ([1]; sc, subcutaneous, 3 mg/kg) is on record?
A: The inhibition in vivo at 3 mg/kg was 38%.

Q: And the inhibition in vivo at 30 mg/kg ([1]; sc, subcutaneous)?
A: The inhibition in vivo at 30 mg/kg was 100%.

Q: What about the “AAW percent efficacy, outlier data removed” value (“AAW percent efficacy” below) ([1]; subcutaneous, 3 mg/kg) of the same compound?
A: The value was 31.07.

Q: `COCCOCCOCCOCCOCCNc1cccc(Nc2ccc3c(c2)[C@]2(C)CCN(CC4CC4)[C@H](C3=O)[C@@H]2C)c1` [Compound 11, (2S,6R,11R)-8-((3-(2,5,8,11,14-pentaoxahexadecan-16-ylamino)phenyl)amino)-3-(cyclopropylmethyl)-6,11-dimethyl-3,4,5,6-tetrahydro-2,6-methanobenzo[d]azocin-1(2H)-one] was tested. Which inhibition in vivo at 10 mg/kg ([1]; po, oral, 10 mg/kg) did it give?
A: The inhibition in vivo at 10 mg/kg was 31.2%.

Q: And the inhibition in vivo at 0.3 mg/kg ([1]; sc, subcutaneous, 0.3 mg/kg)?
A: The inhibition in vivo at 0.3 mg/kg was 21.1%.

Q: And the inhibition in vivo at 3 mg/kg ([1]; sc, subcutaneous, 3 mg/kg)?
A: Its inhibition in vivo at 3 mg/kg is 62.2%.

Q: And the inhibition in vivo at 10 mg/kg ([1]; sc, subcutaneous, 10 mg/kg)?
A: Its inhibition in vivo at 10 mg/kg is 99.1%.

Q: What about the inhibition in vivo at 30 mg/kg ([1]; sc, subcutaneous) of the same compound?
A: Its inhibition in vivo at 30 mg/kg is 100%.

Q: And the “AAW percent efficacy” value ([1]; subcutaneous, 0.3 mg/kg)?
A: Its value is 12.30.

Q: What about the “AAW percent efficacy” value ([1]; subcutaneous, 3 mg/kg) of the same compound?
A: Its value is 56.21 and 60.30.

Q: What about the “AAW percent efficacy” value ([1]; subcutaneous, 10 mg/kg) of the same compound?
A: Its value is 99.00.

Q: For `COCCOCCOCCOCCOCCOc1ccccc1Nc1ccc2c(c1)[C@]1(C)CCN(CC3CC3)[C@H](C2=O)[C@@H]1C` [Compound 7, (2S,6R,11R)-8-((2-(2,5,8,11,14-pentaoxahexadecan-16-yloxy)phenyl)amino)-3-(cyclopropylmethyl)-6,11-dimethyl-3,4,5,6-tetrahydro-2,6-methanobenzo[d]azocin-1(2H)-one], which inhibition in vivo at 3 mg/kg ([1]; sc, subcutaneous, 3 mg/kg) is on record?
A: The inhibition in vivo at 3 mg/kg was 38.8%.

Q: And the inhibition in vivo at 30 mg/kg ([1]; sc, subcutaneous)?
A: The inhibition in vivo at 30 mg/kg was 84.8%.

Q: What about the “AAW percent efficacy” value ([1]; subcutaneous, 3 mg/kg) of the same compound?
A: The value was 31.95.

Q: Which inhibition in vivo at 10 mg/kg ([1]; sc, subcutaneous, 10 mg/kg) does the source give for `COCCOCC(=O)NCc1ccc2c(c1)[C@]1(C)CCN(CC3CC3)C(C2=O)[C@@H]1C` [Compound 17, N,N-(((2S,6R,11R)-3-(cyclopropylmethyl)-6,11-dimethyl-1-oxo-1,2,3,4,5,6-hexahydro-2,6-methanobenzo[d]azocin-8-yl)methyl)-2-(2-methoxyethoxy)acetamide] here?
A: The inhibition in vivo at 10 mg/kg was 23.3%.

Q: What does the source list for `COCCOCCOCCOCCOCCNc1ccc(Nc2ccc3c(c2)[C@]2(C)CCN(CC4CC4)[C@H](C3=O)[C@@H]2C)cc1` [Compound 10, (2S,6R,11R)-8-((4-(2,5,8,11,14-pentaoxahexadecan-16-ylamino)phenyl)amino)-3-(cyclopropylmethyl)-6,11-dimethyl-3,4,5,6-tetrahydro-2,6-methanobenzo[d]azocin-1(2H)-one]?
A: inhibition in vivo at 30 mg/kg ([1]; sc, subcutaneous): 100%; AAW % Efficacy ([1]; subcutaneous, 3 mg/kg): 34.0%; AAW percent efficacy, outlier data removed ([1]; subcutaneous, 3 mg/kg): 26.63

Q: For `COCCOCCOCCOCCOCCOc1c(O)ccc2c1[C@]1(C)CCN(CC3CC3)[C@H](C2=O)[C@@H]1C` [Compound 19, (2S,6R,11R)-7-(2,5,8,11,14-pentaoxahexadecan-16-yloxy)-3-(cyclopropylmethyl)-8-hydroxy-6,11-dimethyl-3,4,5,6-tetrahydro-2,6-methanobenzo[d]azocin-1(2H)-one], which inhibition in vivo at 10 mg/kg ([1]; sc, subcutaneous, 10 mg/kg) is on record?
A: The inhibition in vivo at 10 mg/kg was 31.6%.

Q: Which results are given for `COCCOCCOCCOCCOCCOCCOCCOc1ccc2c(c1)[C@]1(C)CCN(CC3CC3)[C@H](C2=O)[C@@H]1C` [Compound 6, (2S,6R,11R)-3-(Cyclopropylmethyl)-8-(2,5,8,11,14,17,20-heptaoxadocosan-22-yloxy)-6,11-dimethyl-3,4,5,6-tetrahydro-2,6-methano-3-benzazocin-1(2H)-one]?
A: IC50 [2]: 6080 nM; Ki [2]: 1400 nM; EC50 (KOR): 357 nM

Q: With `COCCOCCOCCOCCOCCOc1ccc(Nc2ccc3c(c2)[C@]2(C)CCN(CC4CC4)[C@H](C3=O)[C@@H]2C)cc1` [Compound 9, (2S,6R,11R)-8-((4-(2,5,8,11,14-pentaoxahexadecan-16-yloxy)phenyl)amino)-3-(cyclopropylmethyl)-6,11-dimethyl-3,4,5,6-tetrahydro-2,6-methanobenzo[d]azocin-1(2H)-one] as the compound, how does the inhibition in vivo at 10 mg/kg ([1]; po, oral, 10 mg/kg) read?
A: The inhibition in vivo at 10 mg/kg was 38.5%.

Q: What about the inhibition in vivo at 0.3 mg/kg ([1]; sc, subcutaneous, 0.3 mg/kg) of the same compound?
A: Its inhibition in vivo at 0.3 mg/kg is 13.3%.

Q: What about the inhibition in vivo at 3 mg/kg ([1]; sc, subcutaneous, 3 mg/kg) of the same compound?
A: The inhibition in vivo at 3 mg/kg was 67.8%.

Q: What about the inhibition in vivo at 10 mg/kg ([1]; sc, subcutaneous, 10 mg/kg) of the same compound?
A: Its inhibition in vivo at 10 mg/kg is 95.4%.

Q: And the inhibition in vivo at 30 mg/kg ([1]; sc, subcutaneous)?
A: Its inhibition in vivo at 30 mg/kg is 99.2%.

Q: What about the “AAW percent efficacy” value ([1]; subcutaneous, 0.3 mg/kg) of the same compound?
A: The value was 13.18.

Q: And the “AAW percent efficacy” value ([1]; subcutaneous, 3 mg/kg)?
A: Its value is 64.20 and 57.09.

Q: What about the “AAW percent efficacy” value ([1]; subcutaneous, 10 mg/kg) of the same compound?
A: Its value is 94.93.

Q: For `COCCOCCOCCOCCOCCO[C@@H]1c2ccc(O)cc2[C@]2(C)CCN(CC3CC3)[C@H]1[C@@H]2C` [Compound 25, (1R,2S,6R,11R)-1-(2,5,8,11,14-pentaoxahexadecan-16-yloxy)-3-(cyclopropylmethyl)-6,11-dimethyl-1,2,3,4,5,6-hexahydro-2,6-methanobenzo[d]azocin-8-ol], which Ki [2] is on record?
A: Its Ki is 955 nM.

Q: What about the EC50 (KOR; [3]) of the same compound?
A: Its EC50 is 195 nM.

Q: With `COCCOCCOCCOCCOCCNc1ccc2c(c1)[C@]1(C)CCN(CC3CC3)[C@H](C2=O)[C@@H]1C` [Compound 2, (2S,6R,11R)-3-(Cyclopropylmethyl)-6,11-dimethyl-8-(2,5,8,11,14-pentaoxahexadecan-16-ylamino)-3,4,5,6-tetrahydro-2,6-methano-3-benzazocin-1(2H)-one] as the compound, how does the IC50 [2] read?
A: Its IC50 is 2380 nM.

Q: And the Ki [2]?
A: The Ki was 549 nM.

Q: And the EC50 (KOR; [3])?
A: The EC50 was 139 nM.

Q: With `C[C@H]1[C@H]2C(=O)c3cc4sc(N)nc4cc3[C@]1(C)CCN2CC1CC1` [Step 1 of 13, (6S,10R,12R)-2-amino-7-(cyclopropylmethyl)-10,12-dimethyl-7,8,9,10-tetrahydro-6,10-methanothiazolo[4′,5′:4,5]benzo[1,2-d]azocin-5(6H)-one] as the compound, how does the inhibition in vivo at 10 mg/kg ([1]; sc, subcutaneous, 10 mg/kg) read?
A: The inhibition in vivo at 10 mg/kg was 100%.

Q: How did the inhibition in vivo at 10 mg/kg ([1]; sc, subcutaneous, 10 mg/kg) turn out when `COCCOCC(=O)Nc1ccc2c(c1)[C@]1(C)CCN(CC3CC3)[C@H](C2=O)[C@@H]1C` [Compound 15, N-((2S,6R,11R)-3-(cyclopropylmethyl)-6,11-dimethyl-1-oxo-1,2,3,4,5,6-hexahydro-2,6-methanobenzo[d]azocin-8-yl)-2-(2-methoxyethoxy)acetamide] was run?
A: The inhibition in vivo at 10 mg/kg was 100%.

Q: Which inhibition in vivo at 10 mg/kg ([1]; sc, subcutaneous, 10 mg/kg) does the source give for `COCCNC(=O)c1ccc2c(c1)[C@]1(C)CCN(CC3CC3)[C@H](C2=O)[C@@H]1C` [Compound 16, (2S,6R,11R)-3-(cyclopropylmethyl)-N-(2-methoxyethyl)-6,11-dimethyl-1-oxo-1,2,3,4,5,6-hexahydro-2,6-methanobenzo[d]azocine-8-carboxamide] here?
A: The inhibition in vivo at 10 mg/kg was 26.4%.

Q: Which inhibition in vivo at 10 mg/kg ([1]; sc, subcutaneous, 10 mg/kg) does the source give for `COCCOCCN1CC[C@@]2(C)c3cc(O)ccc3C(=O)[C@@H]1[C@@H]2C` [Compound 14, (2S,6R,11R)-8-hydroxy-3-(2-(2-methoxyethoxy)ethyl)-6,11-dimethyl-3,4,5,6-tetrahydro-2,6-methanobenzo[d]azocin-1(2H)-one] here?
A: Its inhibition in vivo at 10 mg/kg is 13.2%.
